From patent US6949574B2 (Bristol-Myers Squibb Company, priority 2002, dated 2005)
Where two headings read alike, the source gives them in different places.

Target: T1, human FAAH (Homo sapiens, UniProt O00519)
T1 construct: expressed in transfected cells; host or cells: H4 cells (H4-FAAH, Geneticin-selected); crude membrane homogenates
T1 sequence (O00519 1-579): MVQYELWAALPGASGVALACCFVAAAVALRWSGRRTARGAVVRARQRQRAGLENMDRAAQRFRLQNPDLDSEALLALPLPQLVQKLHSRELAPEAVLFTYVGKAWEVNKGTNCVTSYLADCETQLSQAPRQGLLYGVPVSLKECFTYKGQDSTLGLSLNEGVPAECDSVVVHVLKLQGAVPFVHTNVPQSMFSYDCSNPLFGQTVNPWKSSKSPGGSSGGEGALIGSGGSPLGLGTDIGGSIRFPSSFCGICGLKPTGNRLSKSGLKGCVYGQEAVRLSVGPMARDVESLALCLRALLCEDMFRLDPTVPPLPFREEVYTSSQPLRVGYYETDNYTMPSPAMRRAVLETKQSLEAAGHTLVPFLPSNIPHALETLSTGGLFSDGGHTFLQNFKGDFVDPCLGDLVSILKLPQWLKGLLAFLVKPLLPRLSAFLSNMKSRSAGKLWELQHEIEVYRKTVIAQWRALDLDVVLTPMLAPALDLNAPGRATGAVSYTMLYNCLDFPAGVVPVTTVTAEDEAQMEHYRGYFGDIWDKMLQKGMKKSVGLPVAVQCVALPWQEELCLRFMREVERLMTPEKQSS
Assay: FAAH activity in membrane homogenates of H4-FAAH cells, [3H]-anandamide hydrolysis
Format: biochemical
Protocol: Homogenates of crude membranes were prepared from H4 cells that express transfected human FAAH (H4-FAAH cells). Briefly, cells were grown in DMEM supplemented with 10% FBS and Geneticin at a final concentration of 500 μg/ml (Gibco BRL, Rockville, Md.). Confluent cultures of H4-FAAH cells were rinsed twice with phosphate-buffered saline [138 mM NaCl, 4.1 mM KCl, 5.1 mM Na2PO4, 1.5 mM KH2PO4 (pH 7.5), 37° C.] and incubated for 5 to 10 minutes at 4° C. in lysis buffer [1 mM sodium bicarbonate]. Cells were transferred from plates to polypropylene tubes (16×100 mm), homogenized and centrifuged at 32,000×g for 30 minutes. Pellets were resuspended by homogenization in lysis buffer and centrifuged at 32,000×g for 30 minutes. Pellets were resuspended in lysis buffer (15-20 μg protein/ml) then stored at −80° C. until needed. On the day of an experiment, membranes were diluted to 2.67 μg protein/ml in 125 mM Tris-Cl, pH 9.0.
Activity of FAAH was measured using a modification of the method described by Omeir et al., 1995 (Life Sci 56:1999, 1995). Membrane homogenates (240 ng protein) were incubated at room temperature for one hour with 1.67 nM anandamide [ethanolamine 1-^3H] (available from American Radiolabeled Chemical Inc., St Louis, Mo.) and 10 μM anandamide (available from Sigma/RBI, St. Louis, Mo.) in the absence and presence of inhibitors. The reaction was stopped by the addition of 1 volume of a solution of 1:1 methanol and dichloroethane. The mixture was shaken and then centrifuged at 1000×g for 15 minutes to separate the aqueous and organic phases. An aliquot of the aqueous phase, containing [^3H]-ethanolamine was withdrawn and counted by scintillation spectroscopy. Data were expressed as the percentage of [^3H]-ethanolamine formed versus vehicle, after subtraction of the background radioactivity determined in the presence of 10 μM arachidonyl trifluoromethyl ketone (ATFMK), an inhibitor of FAAH. IC50 values were determined using a four-parameter logistic equation for dose-response curves.

[1] = H4-FAAH cell membranes, 10 μM anandamide, room temperature, one hour, read-out: IC50

Structure (SMILES) | IC50 [1] [nM] | IC50 [nM]
CCCCOc1ccc(C(CC)NC(=O)Oc2ccc3ccccc3c2)cc1 (stereo not drawn) [Example 128, [1-(4-Butoxy-phenyl)-propyl]-carbamic acid naphthalen-2-yl ester] | 10 to 100 | 
O=C(Nc1ccc(Oc2ccccn2)cc1)O/N=C/c1ccc(F)cc1 [Example 148, 4-Fluorobenzaldehyde, O-[[[4-[(2-pyridinyl)oxy]phenyl]amino]carbonyl]oxime] | 10 to 100 | 
O=C(Nc1ccc(Oc2ccccc2)cc1)Oc1ccccc1F [Example 123, 4-Phenoxyphenylcarbamic acid, 2-fluorophenyl ester] | > 500 | 
O=C(Nc1ccc(OCCCc2ccccc2)cc1)O/N=C/c1ccc(F)cc1 [Example 83, 4-Fluorobenzaldehyde, O-[[[4-(3-phenylpropoxy)phenyl]amino]carbonyl]oxime] | < 10 | 
CCCCOc1ccc(CNC(=O)O/N=C/c2ccccc2)cc1 [Example 62, Benzaldehyde, O-[[(4-butoxyphenylmethyl)amino]carbonyl]oxime] | 10 to 100 | 
O=C(Nc1ccc(Oc2ccccn2)cc1)O/N=C/c1ccccc1 [Example 149, Benzaldehyde, O-[[[4-[(2-pyridinyl)oxy]phenyl]amino]carbonyl]oxime] | 10 to 100 | 
CCCCOc1ccc(NC(=O)OC)cc1 [Example 95, 4-Butoxyphenylcarbamic acid, methyl ester] | > 500 | 
CCCCOc1ccc(C(CC)NC(=O)Oc2cccc(C(F)(F)F)c2)cc1 (stereo not drawn) [Example 130, [1-(4-Butoxy-phenyl)-propyl]-carbamic acid 3-trifluoromethyl-phenyl ester] | 10 to 100 | 
O=C(Nc1ccc(OCCCc2ccccc2)cc1)O/N=C/c1ccccc1 [Example 86, Benzaldehyde, O-[[[4-(3-phenylpropoxy)phenyl]amino]carbonyl]oxime] | < 10 | 
CCCCCCOc1ccc(NC(=O)Oc2ccccc2F)cc1 [Example 94, 4-Hexyloxyphenylcarbamic acid, 2-fluorophenyl ester] | > 500 | 
CCCCCCCCCCCOc1ccc(NC(=O)O/N=C/c2cccnc2)cc1 [Example 3, 3-Pyridinecarboxaldehyde, O-[[[4-(undecyloxy)phenyl]amino]carbonyl]oxime] | < 10 | 
CCCCCCCCCOc1ccc(NC(=O)O/N=C/c2cc(F)c(F)cc2F)cc1 [Example 56, 2,4,5-Trifluorobenzaldehyde, O-[[(4-nonyloxyphenyl)amino]carbonyl]oxime] | < 10 | 
O=C(Nc1ccc(Oc2cccnc2)cc1)O/N=C/c1ccccc1 [Example 151, Benzaldehyde, O-[[[4-[(3-pyridinyl)oxy]phenyl]amino]carbonyl]oxime] | < 10 | 
CCCCCCCCC(=O)Nc1ccc(NC(=O)O/N=C/c2ccccc2)cc1 [Example 136, Benzaldehyde, O-[[(4-Nonanoylamino-phenyl)amino]carbonyl]oxime] | 10 to 100 | 
CCCCOc1ccc(CNC(=O)O/N=C/c2ccc(F)cc2)cc1 [Example 63, 4-Fluorobenzaldehyde, O-[[(4-butoxyphenylmethyl)amino]carbonyl]oxime] | 10 to 100 | 
CCCCOc1ccc(NC(=O)ON=C(C)C)cc1 [Example 60, 2-Propanone, O-[[(4-butoxyphenyl)amino]carbonyl]oxime] | 10 to 100 | 
O=C(Nc1ccc2[nH]ccc2c1)O/N=C/c1ccc(F)cc1 [Example 142, 4-Fluorobenzaldehyde, O-[[(1H-indol-5-yl)amino]carbonyl]oxime] | > 500 | 
CCCCCOc1ccc(NC(=O)O/N=C/c2ccc(F)cc2)cc1 [Example 14, 4-Fluorobenzaldehyde, O-[[(4-pentyloxyphenyl)amino]carbonyl]oxime] |  | < 10
CCCCOc1ccc(CNC(=O)Oc2cccc(N(C)C)c2)cc1 [Example 118, 4-(Butoxyphenylmethyl)carbamic acid, 3-(dimethylamino)phenyl ester] | 10 to 100 | 
CCCCOc1cccc(NC(=O)O/N=C/c2ccc(F)cc2)c1 [Example 68, 4-Fluorobenzaldehyde, O-[[(3-butoxyphenyl)amino]carbonyl]oxime] | 10 to 100 | 

Structure (SMILES) | IC50 [1] [nM] | IC50 [nM]
O=C(Nc1ccc(Oc2ccccc2)cc1)O/N=C/c1ccccc1 [Example 76, Benzaldehyde, O-[[(4-phenoxyphenyl)amino]carbonyl]oxime] | < 10 | 
CCCCCCCCOc1ccc(NC(=O)ON=C(C)C)cc1 [Example 29, 2-Propanone, O-[[(4-octyloxyphenyl)amino]carbonyl]oxime] | < 10 | 
CCCCCCCOc1ccc(NC(=O)O/N=C/c2ccccc2)cc1 [Example 27, Benzaldehyde, O-[[(4-heptyloxyphenyl)amino]carbonyl]oxime] | < 10 | 
O=C(Nc1c[nH]c2ccccc12)O/N=C/c1ccc(F)cc1 [Example 144, 4-Fluorobenzaldehyde, O-[[(1H-indol-3-yl)amino]carbonyl]oxime] | > 500 | 
O=C(Nc1ccc2oc3ccccc3c2c1)O/N=C/c1ccc(F)cc1 [Example 153, 4-Fluorobenzaldehyde, O-[[(2-dibenzofuranyl)amino]carbonyl]oxime] | 10 to 100 | 
CCCCOc1ccc(NC(=O)O/N=C/c2ccc([N+](=O)[O-])cc2)cc1 [Example 59, 4-Nitrobenzaldehyde, O-[[(4-butoxyphenyl)amino]carbonyl]oxime] | < 10 | 
CCCCCCCCCCCOc1ccc(NC(=O)ON=C(C)C)cc1 [Example 36, 2-Propanone, O-[[(4-undecyloxyphenyl)amino]carbonyl]oxime] | < 10 | 
CCCCOc1ccc(CNC(=O)Oc2ccc(C(F)(F)F)cc2)cc1 [Example 119, 4-(Butoxyphenylmethyl)carbamic acid, 4-(trifluoromethyl)phenyl ester] | 10 to 100 | 
O=C(Nc1cccc(Oc2ccccc2)c1)O/N=C/c1cccnc1 [Example 87, 3-Pyridinecarboxaldehyde, O-[[(3-phenoxyphenyl)amino]carbonyl]oxime] | < 10 | 
O=C(Nc1ccc(OCCc2ccccc2)cc1)O/N=C/c1ccccc1 [Example 85, Benzaldehyde, O-[[[4-(2-phenylethoxy)phenyl]amino]carbonyl]oxime] | < 10 | 
CCOc1ccc(NC(=O)O/N=C/c2ccccc2)cc1 [Example 9, Benzaldehyde, O-[[(4-ethoxyphenyl)amino]carbonyl]oxime] | 10 to 100 | 
CCCCOc1ccc(CNC(=O)Oc2ccc(F)cc2)cc1 [Example 121, 4-(Butoxyphenylmethyl)carbamic acid, 4-fluorophenyl ester] | < 10 | 
CCOc1ccc(NC(=O)O/N=C/c2cccnc2)cc1 [Example 15, 3-Pyridinecarboxaldehyde, O-[[(4-ethoxyphenyl)amino]carbonyl]oxime] | 101 to 500 | 
CCCCCCCCCCOc1ccc(NC(=O)O/N=C/c2ccc(F)cc2)cc1 [Example 34, 4-Fluorobenzaldehyde, O-[[(4-decyloxyphenyl)amino]carbonyl]oxime] | < 10 | 
O=C(Nc1ccc(OCc2ccccc2)cc1)O/N=C/c1ccc(F)cc1 [Example 81, 4-Fluorobenzaldehyde, O-[[[4-(phenylmethoxy)phenyl]amino]carbonyl]oxime] | < 10 | 
CCCCOc1ccc(CNC(=O)O/N=C/c2cccnc2)cc1 [Example 64, 3-Pyridinecarboxaldehyde, O-[[(4-butoxyphenylmethyl)amino]carbonyl]oxime] | 10 to 100 | 
CCCCOc1ccc(C(CC)NC(=O)Oc2ccc(F)cc2)cc1 (stereo not drawn) [Example 132, [1-(4-Butoxy-phenyl)-propyl]-carbamic acid 4-fluoro-phenyl ester] | 10 to 100 | 
CCCCOc1ccc(C(CC)NC(=O)Oc2ccc(OC)cc2)cc1 (stereo not drawn) [Example 126, [1-(4-Butoxy-phenyl)-propyl]-carbamic acid 4-methoxy-phenyl ester] | 10 to 100 | 
CCCCOc1ccc(C(CC)NC(=O)Oc2ccc(F)cc2F)cc1 (stereo not drawn) [Example 131, [1-(4-Butoxy-phenyl)-propyl]-carbamic acid 2,4-difluoro-phenyl ester] | 10 to 100 | 
